Test results published in PMC11995402 (ACS infectious diseases, 2025).
“Also recorded” adds a separate entry of the source. Where two headings read alike, the source gives them in different places. Each block holds one molecule with its values, some of them ahead of it.

Experiments:
[1] = test system: T. muris; assay: adult whipworm whole-worm motility inhibition assay; format: cell-based, Trichuris muris; conditions: for worm motility inhibition, SAR statement (in words): T. muris, 50 μM, 48 h (Figures 3-5); for worm motility inhibition (in words) / motility inhibition: adult T. muris; for worm motility inhibition (in words): 30 μM (Figure 1); for motility inhibition: 30 μM
[2] = test system: A. ceylanicum; assay: adult hookworm whole-worm motility inhibition assay; format: cell-based, Ancylostoma ceylanicum; conditions: for worm motility inhibition, SAR statement (in words): A. ceylanicum, 30 μM, 48 h (Figures 3-5); for IC50: motility
[3] = test system: HepG2 cells; assay: HepG2 MTT viability assay; conditions: for CC50: read-out: HEPG2 cells CC50 μM (95% CI) 24 h, MTT viability, 24 h
[4] = test system: MDR1-MDCK II cells
[5] = in vitro; conditions: dog
[6] = test system: MDR1 (P-gp); assay: in vitro; conditions: dog, MDCK-MDR1
[7] = test system: CK2α/PI3Kγ; conditions: cited from earlier work
[8] = read-out: T. muris IC50 μM (95% CI) 24 h, motility, 24 h
[9] = read-out: T. muris IC50 μM (95% CI) 48 h, motility, 48 h
[10] = read-out: A. ceylanicum IC50 μM (95% CI) 24 h, 24 h
[11] = read-out: A. ceylanicum IC50 μM (95% CI) 48 h, 48 h

Molecule: CN1CCCN(C(=O)c2cccc(-c3ccc(C=C4C(=O)Nc5c(Cl)cccc54)o3)c2)CC1 [Compound 8]
worm motility inhibition, SAR statement (in words) [1]: neither an increase nor decrease to activity | IC50 [1, 8]: 42 µM | IC50 [1, 9]: > 90 µM | worm motility inhibition, SAR statement (in words) [2]: hookworm selective; also recorded: neither an increase nor decrease to activity | IC50 [2, 10]: 40 µM | IC50 [2, 11]: 21 µM | CC50 [3]: 15.5 µM | fold increase in cytotoxicity (measured by CC50) ([3]; relative to CX-6258): 2.4 fold

Molecule: C[C@H]1O[C@@H](O[C@H]2[C@@H](O)C[C@H](O[C@H]3[C@@H](O)C[C@H](O[C@H]4CC[C@@]5(C)[C@H](CC[C@@H]6[C@@H]5C[C@@H](O)[C@]5(C)[C@@H](C7=CC(=O)OC7)CC[C@]65O)C4)O[C@@H]3C)O[C@@H]2C)C[C@H](O)[C@@H]1O [digoxin]
Rank Papp ([4]; MDR1-MDCK II cells): low | recovery ([5]; MDCK-MDR1, mean solution recovery % A to B, MDR1-MDCK II cells): 77.5% | recovery ([5]; MDCK-MDR1, mean solution recovery % B to A, MDR1-MDCK II cells): 92.7% | Papp A→B [6]: 0.151 ×10⁻⁶ cm/s | Papp B→A [6]: 3.43 ×10⁻⁶ cm/s | efflux ratio [6]: 22.8

Molecule: O=C(O)c1ccc2c(c1)nc(Nc1cccc(Cl)c1)c1ccncc12 [CX-4945]
worm motility inhibition (in words) [1]: did not show measurable inhibition of worm motility

Molecule: Cc1ccc(-c2csc3ncnc(SCCC(=O)O)c23)cc1 [TTP22]
worm motility inhibition (in words) [1]: did not show measurable inhibition of worm motility

Rank Papp ([4]; MDCK-MDR1): low | recovery ([5]; MDCK-MDR1): 83.1% | Papp A→B [6]: 0.05 ×10⁻⁶ cm/s
Molecule: CC(C)(C)NCC(O)COc1cccc2c1CC(O)C(O)C2 (stereo not drawn) [nadolol]

Molecule: N#Cc1c(-c2ccccc2)cc(-c2cc(Br)ccc2O)[nH]c1=O [TCS-PIM1]
worm motility inhibition (in words) [1]: excellent inhibition | motility inhibition ([1]; relative to DMSO controls): 100%

Molecule: Cc1ccc2c(c1)C(=Cc1ccc(-c3cccc(C(=O)N4CCCN(C)CC4)c3)o1)C(=O)N2 [Compound 10]
worm motility inhibition, SAR statement (in words) [1]: inactivated the inhibition of both species | worm motility inhibition, SAR statement (in words) [2]: inactivated the inhibition of both species

Molecule: CCCOc1ccc(/C=C2\SC(=O)NC2=O)cc1 [SMI-16a]
motility inhibition ([1]; @48 h (Figure 1B)): 57%

Molecule: O=C1NC(=O)/C(=C/c2ccc(-c3ccc(F)cc3O)o2)S1 [AS-252424]
worm motility inhibition (in words) [1]: excellent worm motility inhibition | selectivity for PI3Kγ over PI3Kα [7]: 30 fold | IC50 ([7]; read-out: IC50 (dual inhibitor of CK2α/PI3Kγ)): 0.03 µM

Molecule: CN1CCCN(C(=O)c2cccc(-c3ccc(C=C4C(=O)Nc5ccccc54)o3)c2)CC1 [Compound 11]
worm motility inhibition, SAR statement (in words) [1]: neither an increase nor decrease to activity | IC50 [1, 8]: > 90 µM | IC50 [1, 9]: > 90 µM | worm motility inhibition, SAR statement (in words) [2]: neither an increase nor decrease to activity | IC50 [2, 10]: 25.2 µM | IC50 [2, 11]: 8.8 µM | CC50 [3]: 22.2 µM

Molecule: ivermectin
IC50 [1, 8]: > 300 µM | IC50 [1, 9]: 89.6 µM

Molecule: C[C@H](NC(=O)c1c(N)nn2cccnc12)c1cc2cccc(C#Cc3cnn(C)c3)c2c(=O)n1-c1ccccc1 [IPI-549]
worm motility inhibition (in words) [1]: did not show measurable inhibition of worm motility

Molecule: CN1CCCN(C(=O)c2cccc(-c3ccc(C=C4C(=O)Nc5ccc(N)cc54)o3)c2)CC1 [Compound 7]
worm motility inhibition, SAR statement (in words) [1]: complete loss of activity; also recorded: inactive against both species | worm motility inhibition, SAR statement (in words) [2]: not against A. ceylanicum; also recorded: inactive against both species

Molecule: CCCSc1ccc2nc(NC(=O)OC)[nH]c2c1 [albendazole]
IC50 ([1]; Trichuris muris, 24 h, read-out: T. muris IC50 μM (95% CI) 24 h): > 300 µM | IC50 ([1]; Trichuris muris, 48 h, read-out: T. muris IC50 μM (95% CI) 48 h): > 300 µM

Rank Papp ([4]; MDCK-MDR1): high | recovery ([5]; MDCK-MDR1): 97.4% | Papp A→B [6]: 25.6 ×10⁻⁶ cm/s
Molecule: COCCc1ccc(OCC(O)CNC(C)C)cc1 (stereo not drawn) [metoprolol]

Molecule: O=C1NC(=O)/C(=C/c2cccc(C(F)(F)F)c2)S1 [SMI-4a]
motility inhibition ([1]; @48 h (Figure 1B)): 71%

Molecule: N[C@@H]1CCCN(c2c(/C=C3\SC(=O)NC3=O)cccc2-c2ccccc2)C1 [AZD1208]
worm motility inhibition (in words) [1]: inactive

IC50 [1, 8]: 0.0143 µM | IC50 [1, 9]: 0.0345 µM | IC50 [2, 10]: 0.0033 µM | IC50 [2, 11]: 0.0011 µM
Molecule: CC(C)C[C@H]1C(=O)O[C@H](Cc2ccc(N3CCOCC3)cc2)C(=O)N(C)[C@@H](CC(C)C)C(=O)O[C@H](C)C(=O)N(C)[C@@H](CC(C)C)C(=O)O[C@H](Cc2ccc(N3CCOCC3)cc2)C(=O)N(C)[C@@H](CC(C)C)C(=O)O[C@H](C)C(=O)N1C [emodepside]

Molecule: CN1CCC(CNc2ccc3ncc(-c4cccc(OC(F)(F)F)c4)n3n2)CC1 [SGI-1776]
worm motility inhibition (in words) [1]: excellent inhibition
